Measured values taken from ChEMBL document CHEMBL6134863, “Novel Mitochondria-Targeted Asymmetric Heptamethine Cyanine Dye for Cancer Targeted NIR Imaging and Potent Necrosis and Senescence Induction with Prolonged Retention” (J Med Chem, 2025).
One block for each compound: values may come before it. Calls of active or inactive are those of the source. The calls are words filed in the database; no cut-off is given here.

Legend:
[1] = Partition coefficient, logP of compound; type: physicochemical; conditions: octanol/water
[2] = Distribution coefficient, logD of compound; type: physicochemical; conditions: octanol/water
[3] = Drug accumulation in tumor to muscle of BALB/c mouse implanted with mouse 4T1 cells at 0.5 mg/kg, iv measured at 4 to 168 hrs; type: ADME, organism-based; conditions: in vivo, time 4-168 hrs
[4] = Drug uptake in human NCI-H226 cells assessed as increase in red fluorescence intensity at 5 uM incubated for 30 mins by CY7 staining based microscopic analysis; type: ADME, cell-based; conditions: nci-h226, 0.5 h
[5] = Drug uptake in human NCI-H226 cells assessed as increase in green fluorescence intensity at 5 uM incubated for 30 mins by F-actin staining staining based microscopic analysis; type: ADME, cell-based; conditions: nci-h226, 0.5 h
[6] = Drug uptake in mouse 4T1 cells assessed as increase in red fluorescence intensity at 5 uM incubated for 30 mins by CY7 staining based microscopic analysis; type: ADME, cell-based; conditions: 4t1, 0.5 h
[7] = Drug uptake in mouse 4T1 cells assessed as increase in green fluorescence intensity at 5 uM incubated for 30 mins by F-actin staining staining based microscopic analysis; type: ADME, cell-based; conditions: 4t1, 0.5 h
[8] = Solubility of compound in DMSO-H2O; type: physicochemical
[9] = Ratio of drug level in tumor to muscle of BALB/c mouse implanted with mouse 4T1 cells at 0.5 mg/kg, iv measured at 12 to 24 hrs; type: ADME, organism-based; conditions: in vivo, time 12-24 hrs
[10] = Photostability of compound in DMSO-H2O incubated for 1 hr irradiated with deuterium lamp by absorbance based analysis; type: physicochemical; conditions: read-out: Stability
[11] = Stability of compound in DMSO-H2O incubated for 150 mins by absorbance based analysis; type: physicochemical; conditions: 2.5 h
[12] = Antioxidant activity of compound in presence of ROS; type: functional
[13] = Antioxidant activity of compound in presence of RNS; type: functional
[14] = Antioxidant activity of compound in presence of RSS; type: functional
[15] = Antioxidant activity of compound in presence of Ca2+; type: functional
[16] = Antioxidant activity of compound in presence of Fe3+; type: functional
[17] = Antioxidant activity of compound in presence of NH4+; type: functional
[18] = Antioxidant activity of compound in presence of HSO3-; type: functional
[19] = Antioxidant activity of compound in presence of SO4; type: functional
[20] = Antioxidant activity of compound in presence of CO3; type: functional
[21] = Antioxidant activity of compound in presence of HCO3-; type: functional
[22] = Antioxidant activity of compound in presence of Cl-; type: functional
[23] = Antioxidant activity of compound in presence of Br-; type: functional
[24] = Antioxidant activity of compound in presence of H2O2-; type: functional
[25] = Antioxidant activity of compound in presence of ClO-; type: functional
[26] = Antioxidant activity of compound in presence of OH; type: functional
[27] = Antioxidant activity of compound in presence of TBHP; type: functional
[28] = Antioxidant activity of compound in presence of ONOO-; type: functional
[29] = Antioxidant activity of compound in presence of NO2; type: functional
[30] = Antioxidant activity of compound in presence of Glutathione; type: functional
[31] = Antioxidant activity of compound in presence of L-Cysteine; type: functional
[32] = Antioxidant activity of compound in presence of HCHO; type: functional
[33] = Antioxidant activity of compound in presence of […]; type: functional
[34] = Drug accumulation in BALB/c mouse tumor xenografted with human NCI-H520 cells assessed as increase in fluorescence intensity at 0.5 mg/kg, iv measured at 96 hrs by imaging based analysis; type: ADME, organism-based, Neoplasm; conditions: in vivo
[35] = Cytotoxicity against human Primary lung fibroblast assessed as decrease in cell viability up to 5 uM incubated for 24 hrs by CCK-8 assay; type: toxicity, cell-based
[36] = Cytotoxicity against human Primary lung fibroblast assessed as decrease in cell viability up to 10 uM incubated for 24 hrs by CCK-8 assay; type: toxicity, cell-based
[37] = tested on: NCI-H226; experiment: Cytotoxicity against human NCI-H226 assessed as decrease in cell viability up to 10 uM incubated for 24 hrs by CCK-8 assay; type: functional, cell-based
[38] = tested on: NIH3T3; experiment: Cytotoxicity against mouse 3T3 cells assessed as decrease in cell viability up to 5 uM incubated for 24 hrs by CCK-8 assay; type: toxicity, cell-based; conditions: nih3t3, 24 h
[39] = Drug uptake in human NCI-H226 cells assessed as increase in fluorescence intensity incubated for 24 hrs by fluorescence based microscopic analysis; type: ADME, cell-based; conditions: nci-h226, 24 h
[40] = Drug localization in mitochondria of human NCI-H226 cell by MitoTracker Red based NIR confocal microscopic analysis; type: ADME
[41] = tested on: NCI-H250; experiment: Antitumor activity against human […] cells xenografted in BALB/c mouse assessed as tumor growth inhibition 0.5 mg/kg, iv measured for 5 days; type: functional, organism-based; conditions: time 5.0 day

SMILES: COC(=O)CNC(=O)c1ccc(OCCCN2/C(=C/C=C3\CCCC(/C=C/C4=[N+](CCCOc5ccc(C(=O)NCC(=O)OC)cc5)c5ccc6ccccc6c5C4(C)C)=C3Cl)C(C)(C)c3c2ccc2ccccc32)cc1.[Br-]
- logP [1]: 7.45
- logD [2]: 5.51
- Drug uptake [3]: Active

SMILES: CC1(C)C(/C=C/C=C/C=C/C=C2\N(CCCCS(=O)(=O)O)c3ccc4ccccc4c3C2(C)C)=[N+](CCCCS(=O)(=O)[O-])c2ccc3ccccc3c21 [INDOCYANINE GREEN]
- remaining at 1 h [10]: 95.2%
- Activity [37]: Active

SMILES: COC(=O)CCC(=O)CNC(=O)c1ccc(CN2/C(=C/C=C3\CCCC(/C=C/C4=[N+](Cc5ccc(C(=O)NCC(=O)CCC(=O)OC)cc5)c5ccc6ccccc6c5C4(C)C)=C3Cl)C(C)(C)c3c2ccc2ccccc32)cc1.[Br-]
- logP [1]: 7.21
- logD [2]: 5.28
- Drug uptake [3]: Active

SMILES: CC(C)(C)OC(=O)Nc1ccc2c(c1)C(C)(C)C(/C=C/C1=C(Cl)C(=C/C=C3/N(Cc4ccc(C(=O)O)cc4)c4ccc(NC(=O)OC(C)(C)C)cc4C3(C)C)/CCC1)=[N+]2Cc1ccc(C(=O)O)cc1
- logP [1]: 6.92
- logD [2]: 3.78

SMILES: COC(=O)CNC(=O)CCN1/C(=C/C=C2\CCCC(/C=C/C3=[N+](CCC(=O)NCC(=O)OC)c4ccc5ccccc5c4C3(C)C)=C2Cl)C(C)(C)c2c1ccc1ccccc21
- logP [1]: 6.18
- logD [2]: 3.39

SMILES: CC1(C)C(/C=C/C2=C(Cl)C(=C/C=C3/N(Cc4ccc(C(=O)O)cc4)c4ccc(N)cc4C3(C)C)/CCC2)=[N+](Cc2ccc(C(=O)O)cc2)c2ccc(N)cc21
- logP [1]: 5.6
- logD [2]: 3.22

SMILES: COC(=O)CNC(=O)c1ccc(CN2/C(=C/C=C3\CCCC(/C=C/C4=[N+](Cc5ccc(C(=O)NCC(=O)OC)cc5)c5ccc6ccccc6c5C4(C)C)=C3Cl)C(C)(C)c3c2ccc2ccccc32)cc1.[Br-]
- logP [1]: 7.23
- logD [2]: 5.6
- Drug uptake [3]: Active

SMILES: Cc1ccc2c(c1)C(C)(C)C(/C=C/C1=C(Cl)C(=C/C=C3/N(Cc4ccc(C(=O)O)cc4)c4ccc(C)cc4C3(C)C)/CCC1)=[N+]2Cc1ccc(C(=O)O)cc1.[Br-]
- logP [1]: 6.14
- logD [2]: 4.74
- Drug uptake [3]: Active

SMILES: CC1(C)C(/C=C/C=C/C=C/C=C2/N(Cc3ccc(C(=O)O)cc3)c3ccc4ccccc4c3C2(C)C)=[N+](Cc2ccc(C(=O)O)cc2)c2ccc3ccccc3c21.[Br-]
- solubility [8]: 170 µg/mL
- logP [1]: 7.06
- logD [2]: 3.59

SMILES: COC(=O)CCC(=O)CNC(=O)c1ccc(CN2/C(=C/C=C3\CCCC(/C=C/C4=[N+](Cc5ccc(C(=O)NCC(=O)CCC(=O)OC)cc5)c5ccccc5C4(C)C)=C3Cl)C(C)(C)c3ccccc32)cc1.[Br-]
- logP [1]: 6.17
- logD [2]: 4.48
- Drug uptake [3]: Active
- Ratio [9]: > 5
- Drug uptake [4]: Active
- Drug uptake [5]: Active
- Drug uptake [6]: Active
- Drug uptake [7]: Active

SMILES: CC1(C)C(/C=C/C=C/C=C/C=C2/N(CCCOc3ccc(C(=O)O)cc3)c3ccc4ccccc4c3C2(C)C)=[N+](CCCOc2ccc(C(=O)O)cc2)c2ccc3ccccc3c21.[Br-]
- solubility [8]: 170 µg/mL
- logP [1]: 7.26
- logD [2]: 3.79

SMILES: CC1(C)C(/C=C/C2=C(Cl)C(=C/C=C3/N(CCOc4ccccc4C(=O)O)c4ccc5ccccc5c4C3(C)C)/CCC2)=[N+](CCOc2ccccc2C(=O)O)c2ccc3ccccc3c21
- logP [1]: 7.27
- logD [2]: 3.73

Second part, led by results:

- logP [1]: 6.41
- logD [2]: 4.02
- Drug uptake [3]: Active
SMILES: Cc1ccc2c(c1)C(C)(C)C(/C=C/C1=C(Cl)C(=C/C=C3/N(CCCOc4ccc(C(=O)O)cc4)c4ccc(C)cc4C3(C)C)/CCC1)=[N+]2CCCOc1ccc(C(=O)O)cc1.[Br-]

- logP [1]: 5.89
- logD [2]: 4.24
- Drug uptake [3]: Active
- Drug uptake [4]: Not_active
- Drug uptake [5]: Not_active
- Drug uptake [6]: Not_active
- Drug uptake [7]: Not_active
SMILES: CCN1/C(=C/C=C2\CCCC(/C=C/C3=[N+](Cc4ccc(C(=O)O)cc4)c4ccccc4C3(C)C)=C2Cl)C(C)(C)c2ccccc21.[Br-]

- solubility [8]: 170 µg/mL
- logP [1]: 6.21
- logD [2]: 4.63
- Drug uptake [3]: Active
- Ratio [9]: > 5
- Drug uptake [4]: Not_active
- Drug uptake [5]: Not_active
- Drug uptake [6]: Not_active
- Drug uptake [7]: Not_active
- remaining at 1 h [10]: 89.4%
- Stability [11]: Stable
- Drug uptake [34]: Active
- Drug uptake [39]: Active
- Drug uptake [40]: Active
SMILES: CCCN1/C(=C/C=C2\CCCC(/C=C/C3=[N+](CCCOc4ccc(C(=O)O)cc4)c4ccccc4C3(C)C)=C2Cl)C(C)(C)c2ccccc21.[Br-]
- Activity [12]: Active
- Activity [13]: Active
- Activity [14]: Active
- Activity [15]: Active
- Activity [16]: Active
- Activity [17]: Active
- Activity [18]: Active
- Activity [19]: Active
- Activity [20]: Active
- Activity [21]: Active
- Activity [22]: Active
- Activity [23]: Active
- Activity [24]: Active
- Activity [25]: Active
- Activity [26]: Active
- Activity [27]: Active
- Activity [28]: Active
- Activity [29]: Active
- Activity [30]: Active
- Activity [31]: Active
- Activity [32]: Active
- Activity [33]: Active
- Activity [35]: Non-toxic
- Activity [36]: Non-toxic
- Activity [37]: Active
- Activity [38]: > 80%
- TGI [41]: Active

- logP [1]: 7.24
- logD [2]: 4.19
- Drug uptake [3]: Active
SMILES: CC1(C)C(/C=C/C2=C(Cl)C(=C/C=C3/N(CCCOc4ccc(C(=O)O)cc4)c4ccc5ccccc5c4C3(C)C)/CCC2)=[N+](CCCOc2ccc(C(=O)O)cc2)c2ccc3ccccc3c21.[Br-]

- solubility [8]: 170 µg/mL
- logP [1]: 5.9
- logD [2]: 4.23
- Drug uptake [3]: Active
- Ratio [9]: > 5
- Drug uptake [4]: Active
- Drug uptake [5]: Active
- Drug uptake [6]: Active
- Drug uptake [7]: Active
SMILES: CC1(C)C(/C=C/C2=C(Cl)C(=C/C=C3/N(CCCCCC(=O)O)c4ccccc4C3(C)C)/CCC2)=[N+](CCCOc2ccc(C(=O)O)cc2)c2ccccc21.[Br-]

- logP [1]: 5.36
- logD [2]: 3.92
SMILES: COC(=O)C(C)NC(=O)CCN1/C(=C/C=C2\CCCC(/C=C/C3=[N+](CCC(=O)NC(C)C(=O)OC)c4ccccc4C3(C)C)=C2Cl)C(C)(C)c2ccccc21 (centres undefined)

- logP [1]: 6.18
- logD [2]: 4.3
- Drug uptake [3]: Active
- Ratio [9]: > 5
- Drug uptake [4]: Active
- Drug uptake [5]: Active
- Drug uptake [6]: Active
- Drug uptake [7]: Active
SMILES: COC(=O)CNC(=O)c1ccc(OCCC[N+]2=C(/C=C/C3=C(Cl)C(=C/C=C4/N(Cc5ccc(C(=O)O)cc5)c5ccccc5C4(C)C)/CCC3)C(C)(C)c3ccccc32)cc1.[Br-]
